Results published in patent publication US12042545B2, “Encapsulated extracellular vesicles” (THE BOARD OF TRUSTEES OF THE UNIVERSITY OF ILLINOIS, priority 2020, dated 2024).
Ends that are not written are not given here.

Experiment: Bulk transport experiments: release from alginate hydrogels
Conditions: not given

**Q.** Which “effect of treatment on EV release from hydrogels” value (shortened to “effect of treatment on EV release”) does the source give for NC1=N[C@H](O)[C@H]2[C@H]3O[C@]4(O)O[C@@H]([C@@H](O)[C@@]2(N1)[C@@H]4O)[C@]3(O)CO [tetrodotoxin] here?
**A.** significantly increased EV release in soft and stiff stress relaxing hydrogels

Same assay, conditions: EVs encapsulated in alginate hydrogels, agent added or tethered

**Q.** For O=C(O)CN(CCOCCOCCN(CC(=O)O)CC(=O)O)CC(=O)O [EGTA], which “effect of treatment on EV release” value is on record?
**A.** did not affect the release

**Q.** Which “effect of treatment on EV release” value does the source give for Cc1ccc2c(c1)C(=O)C1(O)CCN(c3ccccc3)C1=N2 (stereo not drawn) [blebbistatin] here?
**A.** did not affect the EV release

**Q.** Which “effect of treatment on EV release” value does the source give for O=C(O)c1cc([N+](=O)[O-])ccc1NCCCc1ccccc1 [NPPB] here?
**A.** did not alter EV release from the hydrogels

**Q.** Which “effect of treatment on EV release” value does the source give for C[C@@H](N)[C@H]1CC[C@H](C(=O)Nc2ccncc2)CC1 [Y27632] here?
**A.** did not affect the EV release

**Q.** For C[C@H](CCC(=O)O)C[C@H](C)C[C@H](C)C(=O)/C=C(\O)[C@H](C)C[C@H](C)C/C=C/[C@@H](C)[C@@H](O)[C@@H](C)[C@@H](O)C[C@@H]1CC[C@@](C)([C@H]2CC[C@@](C)([C@@H](C)O)O2)O1 [ionomycin], which “effect of treatment on EV release” value is on record?
**A.** did not affect the release

**Q.** With CCN(c1nc(N)c(C(=O)NC(=N)N)nc1Cl)C(C)C [EIPA] as the compound, how does the “effect of treatment on EV release” value read?
**A.** did not alter EV release from the hydrogels

**Q.** Which “effect of treatment on EV release” value does the source give for “GsMTx4: a selective inhibition of cation-permeable mechanosensitive channels (GCLEFWWKCNPNDDKCCRPKLKCSKLFKLCNFSF; ends and bridges not checked; cysteine pairing not given here; UniProt Q7YT39 47-80, looked up)” here?
**A.** increased EV release in stiff stress relaxing hydrogels

Same assay, conditions: added to EV preparations during lyophilization

**Q.** With OC[C@H]1O[C@H](O[C@H]2O[C@H](CO)[C@@H](O)[C@H](O)[C@H]2O)[C@H](O)[C@@H](O)[C@@H]1O [trehalose] as the compound, how does the “release behavior of lyophilized EVs with cryoprotectant” value read?
**A.** recovered release behavior
